# Data taken from patent US7041810B2, “Alpha-2 adrenergic receptor polymorphisms” (University Of Cincinnati, priority 2000, dated 2006).
# Substitutions are numbered along the chain they refer to.
# Key:
# [1] = molecular target: T1, Lys251 alpha-2AAR (Homo sapiens, UniProt P08913, N266K); assay: [35S]GTPγS binding, membranes of COS-7 cells coexpressing Giα2; format: biochemical; design: expressed in transfected cells; membranes or intact cells; conditions: 10 μM agonist
# T1 sequence (P08913 16-465 N266K): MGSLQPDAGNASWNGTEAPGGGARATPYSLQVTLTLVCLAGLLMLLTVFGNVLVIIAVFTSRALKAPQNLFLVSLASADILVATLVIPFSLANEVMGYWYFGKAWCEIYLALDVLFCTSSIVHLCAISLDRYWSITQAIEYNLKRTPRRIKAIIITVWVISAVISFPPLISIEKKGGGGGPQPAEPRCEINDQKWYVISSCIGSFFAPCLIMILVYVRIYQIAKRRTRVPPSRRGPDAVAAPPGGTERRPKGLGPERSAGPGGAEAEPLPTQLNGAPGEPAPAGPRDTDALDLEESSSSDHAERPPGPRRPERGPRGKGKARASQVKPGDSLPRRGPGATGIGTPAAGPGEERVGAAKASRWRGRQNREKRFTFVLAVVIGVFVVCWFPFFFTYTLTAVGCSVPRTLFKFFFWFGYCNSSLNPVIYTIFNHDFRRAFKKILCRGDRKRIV
# Method: Receptor-G protein interaction was quantitated by [^35S] radiolabeled guanosine-5′-O-(3-thiotriphosphate) ([^35S]GTPγS) binding in COS-7 cells transiently transfected with each alpha-2AAR construct and Giα2. […] Nonspecific binding was measured in the presence of 10 μM GTPγS.
# [2] = molecular target: T2, wild-type alpha-2BAR (Homo sapiens, UniProt P18089); assay: Inhibition of forskolin stimulated adenylyl cyclase and desensitization, CHO membranes; format: biochemical; design: The human receptor consists of 450 amino acids; expressed in transfected cells
# T2 sequence (P18089 1-450): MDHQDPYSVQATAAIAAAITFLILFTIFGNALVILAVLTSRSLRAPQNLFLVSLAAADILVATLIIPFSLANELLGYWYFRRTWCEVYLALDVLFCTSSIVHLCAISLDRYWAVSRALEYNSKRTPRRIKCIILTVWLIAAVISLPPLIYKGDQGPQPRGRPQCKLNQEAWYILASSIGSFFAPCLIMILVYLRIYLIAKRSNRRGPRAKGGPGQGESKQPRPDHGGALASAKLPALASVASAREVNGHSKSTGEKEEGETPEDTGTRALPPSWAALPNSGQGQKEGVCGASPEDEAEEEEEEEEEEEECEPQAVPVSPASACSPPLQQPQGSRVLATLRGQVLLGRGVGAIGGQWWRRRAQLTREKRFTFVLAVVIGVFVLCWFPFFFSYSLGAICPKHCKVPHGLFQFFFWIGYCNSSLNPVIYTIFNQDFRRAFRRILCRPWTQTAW
# Method: For desensitization experiments, cells were pretreated for 30 min at 37° with media alone or with media containing 10 μM norepinephrine, placed on ice, and washed five times with cold PBS prior to membrane preparation. Desensitization of alpha-2BAR is manifested by a shift to the right in the dose-response curve for the inhibition of adenylyl cyclase (i.e., increase in EC50) without a significant change in the maximal response (17-19). To quantitate the magnitude of this desensitization, the inhibitory response under control conditions at a submaximal concentration of agonist (the EC50) in the assay was determined from the curve and compared to the response to this same concentration from membranes derived from cells exposed to norepinephrine. This method has been previously validated (26) in several G protein coupled receptor systems.
# [3] = molecular target: T3, wild-type Asn251 alpha-2AAR (Homo sapiens, UniProt P08913); conditions: 5.0 μM forskolin, no agonist
# T3 sequence (P08913 16-465): T1 sequence (P08913 16-465 N266K) with K251N
# Method: (§1) Alpha-2AAR inhibition of adenylyl cyclase was determined in membrane preparations from CHO cells stably expressing the two receptors using methods similar to those previously described (18). […] Reactions were terminated by the addition of a stop solution containing excess ATP and cAMP and ˜100,000 dpm of [^3H]cAMP. Labeled cAMP was isolated by gravity chromatography over alumina columns with [^3H]cAMP used to quantitate column recovery. […] Results are expressed as percent inhibition of forskolin stimulated activity.
# [4] = molecular target: T1, Lys251 alpha-2AAR
# Method: as §1
# [5] = molecular target: T2, wild-type alpha-2BAR; conditions: read-out: [125I]-aminoclonidine saturation binding KD
# [6] = molecular target: T4, wild-type alpha-2CAR (Homo sapiens, UniProt P18825, L239R/R446P/S401I); assay: Inhibition of forskolin stimulated adenylyl cyclase, CHO membranes; format: biochemical; design: expressed in transfected cells; membranes or intact cells; conditions: lower expressing line 565±69 fmol/mg
# T4 sequence (P18825 1-462 L239R/S401I/R446P): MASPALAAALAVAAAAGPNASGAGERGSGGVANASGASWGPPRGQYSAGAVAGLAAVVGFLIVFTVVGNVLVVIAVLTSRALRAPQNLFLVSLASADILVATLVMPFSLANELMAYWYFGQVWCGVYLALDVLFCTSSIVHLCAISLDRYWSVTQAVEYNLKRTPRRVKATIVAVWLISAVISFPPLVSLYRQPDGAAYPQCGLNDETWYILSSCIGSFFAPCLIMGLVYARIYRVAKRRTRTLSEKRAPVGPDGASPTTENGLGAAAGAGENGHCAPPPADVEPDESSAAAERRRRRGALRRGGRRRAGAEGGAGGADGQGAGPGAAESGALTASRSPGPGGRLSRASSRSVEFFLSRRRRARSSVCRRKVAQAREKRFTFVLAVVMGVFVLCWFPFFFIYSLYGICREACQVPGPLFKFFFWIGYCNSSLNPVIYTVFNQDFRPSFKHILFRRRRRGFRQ
# Description: (§2) Reactions were terminated by the addition of a stop solution containing excess ATP and cAMP and ˜100,000 dpm of [^3H]cAMP. Labeled cAMP was isolated by gravity chromatography over alumina columns with [^3H]cAMP used to quantitate column recovery. […] Results are expressed as percent inhibition of forskolin stimulated activity.
# [7] = molecular target: T4, wild-type alpha-2CAR; conditions: 10 μM epinephrine, 5 min; 806±140 fmol/mg
# [8] = molecular target: T4, wild-type alpha-2CAR; conditions: 10 μM epinephrine; thrombin 1 unit/ml
# [9] = molecular target: T5, wild-type alpha-2CAR (Homo sapiens, UniProt P18825); assay: Inhibition of forskolin stimulated adenylyl cyclase, CHO membranes; format: biochemical
# T5 construct: expressed in transfected cells; membranes or intact cells
# T5 sequence (P18825 1-462 L239R/S401I/R446P): T4 sequence (P18825 1-462 L239R/S401I/R446P)
# Description: as §2
structure (smiles),measurement,setting,value
CCN1CCc2nc(N)oc2CC1 [BHT-933],enhanced [35S]GTPγS binding for Lys251 as compared to the Asn251 receptor,[1],45%
"C=C[C@@]1(C)CC(=O)[C@]2(O)[C@@]3(C)[C@@H](O)CCC(C)(C)[C@@H]3[C@H](O)[C@H](OC(C)=O)[C@@]2(C)O1 [Forskolin, forskolin]",Forskolin adenylyl cyclase activity,"[2]; forskolin 5 μM, no agonist",15.1 ± 0.9 pmol/min/mg
same,Forskolin adenylyl cyclase activity,[3],32.7 ± 4.0 pmol/min/mg
same,Forskolin adenylyl cyclase activity,"[4]; 5.0 μM forskolin, no agonist",31.6 ± 6.5 pmol/min/mg
Brc1c(NC2=NCCN2)ccc2nccnc12 [UK 14304],enhanced [35S]GTPγS binding for Lys251 as compared to the Asn251 receptor,[1],~40%
"Nc1cc(Cl)c(NC2=NCCN2)c(Cl)c1I [[^125I]-aminoclonidine, aminoclonidine]",Kd,[5],1.33 ± 0.12 nM
CNC[C@H](O)c1ccc(O)c(O)c1 [epinephrine],inhibition of adenylyl cyclase,[6],73±2.4%
same,accumulation of inositol phosphates over basal,[7],30±3%
same,MAP kinase stimulation as a percent of the thrombin response,[8],128±10.0%
N=C(N)N/N=C/c1c(Cl)cccc1Cl [guanabenz],enhanced [35S]GTPγS binding for Lys251 as compared to the Asn251 receptor,[1],72%
NC[C@H](O)c1ccc(O)c(O)c1 [norepinephrine],EC50,[2],7.9 ± 2.1 nM
same,Max Inhibition (%) of forskolin stimulated adenylyl cyclase,[2]; 626±54 fmol/mg,28.5 ± 1.6%
same,Desensitization (%),[2]; after 10 μM norepinephrine 30 min,~54%
same,Submax inhibition (%) Ctrl,"[2]; agonist at the EC50 of control membranes, cells pretreated with media alone",16.5 ± 3.9%
same,Submax inhibition (%) NE,"[2]; same agonist concentration, cells pretreated with 10 μM norepinephrine 30 min",7.6 ± 2.3 %
same,enhanced [35S]GTPγS binding for Lys251 as compared to the Asn251 receptor,[1],~40%
same,EC50,[9],219 ± 13.7 nM
Cc1cc(C(C)(C)C)c(O)c(C)c1CC1=NCCN1 [oxymetazoline],augmented function of Lys251 compared to the Asn251 receptor,[4]; adenylyl cyclase inhibition,~40%
